Experimental data from US9315522B2, “Antibacterial compounds” (JANSSEN SCIENCES IRELAND UC, priority 2012, dated 2016).
Converted amounts (≈) assume the structure as drawn. Like-named read-outs stand apart in the source and are kept apart here. Blank lines part the entries; values can stand above or below the compound they belong to.

How the values were obtained:
[1] = tested on: S. aureus strain ATCC 29213; experiment: In vivo efficacy, peritonitis model of S. aureus infection; conditions: female Swiss albino mice, IP infection, inoculum 8.7 log10, IV, QD, 20% CD + 2H2T, 3 days post-infection
From the text: The concept of studying the in vivo effect of an antibacterial compound by treating intraperitoneally infected mice was introduced in 1911 for optochin against pneumococci (Morgenroth and Levy, 1911). The popularity of the model comes from the ease of its use with short-duration experiments, reproducible infections and simple end-points.
Methicillin-sensitive S. aureus strain ATCC 29213 was used to infect female Swiss albino mice. A Brain Heart Infusion (BHI) broth bacterial culture was inoculated the day before infection, incubated at 37° C. overnight and diluted in fresh BHI broth to the desired concentration. Intraperitoneal (i.p.) injection of ˜5×10^9 colony forming units (CFU) was performed in either of the lateral lower quadrants of the abdomen. After inoculation, mice were kept in their cages under daily observation for development of signs of infection or death. For the treatment of mice, the p.o. route was used and each mouse was treated individually by gavage. Example of Cpd No. 48 was formulated as a 20% HP-β-cyclodextrin and example of Cpd No. 38 was formulated as a water/Tween-20 suspension. The parameter used for monitoring the course of infection and the effect of treatment was death or survival of the animals over 3 days post-infection. As death could also be due to toxic side effects, a non-infected control group of 3 mice, treated with the highest dose of the compound tested, was included.

[2] = target: T1, S. aureus ATCC 29213 FabI (Staphylococcus aureus, UniProt Q6GI75); experiment: Staphylococcus aureus FabI enzyme inhibition assay; format: biochemical; conditions: read-out: FabI (300.235) IC50 (converted)
T1 sequence (Q6GI75 1-256): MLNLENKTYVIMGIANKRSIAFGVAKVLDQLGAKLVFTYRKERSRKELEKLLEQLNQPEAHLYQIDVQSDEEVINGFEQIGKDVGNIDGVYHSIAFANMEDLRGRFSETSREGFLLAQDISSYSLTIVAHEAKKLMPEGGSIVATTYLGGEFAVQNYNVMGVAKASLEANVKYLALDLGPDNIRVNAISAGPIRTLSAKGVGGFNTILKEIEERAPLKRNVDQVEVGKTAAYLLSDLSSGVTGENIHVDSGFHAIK
How it was run: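 S. aureus ATCC 29213 FabI (50 μg/ml) with 250 μM crotonoyl-CoA and 625 μM NADH in 100 mM NaADA pH 6.5, inhibitor 50–0.39 μM, 30 min at room temperature. Stopped by Tris pH 9.0 shift; NADH at 340 nm versus no-compound and no-enzyme controls; IC50 in μg/ml.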

[3] = tested on: Staphylococcus aureus ATCC 29213; experiment: Antibacterial susceptibility testing, IC90 determination (STA); format: cell-based; conditions: resazurin; for IC90: Staphylococcus aureus, ATCC29213, Staphylococcus aureus ATCC 29213, broth microdilution, read-out: STA (361.159) IC90; for STA (361.159) IC90: Staphylococcus aureus ATCC 29213, broth microdilution
How it was run: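 S. aureus ATCC 29213 tested by broth microdilution in Mueller-Hinton broth, 5×10^5 CFU/ml, two-fold compound dilutions typically 63 to 0.49 μM, 1.25% DMSO, 16-20 h at 35° C. Growth read fluorometrically with resazurin (ex 540/em 590 nm); IC90 in μg/ml is 90% growth-inhibitory concentration.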

[4] = In vivo pharmacokinetic and oral bioavailability in mouse; parameters: species or system male Swiss mice; conditions: for Vdz: i.v.; for half-life: read-out: Half life (t1/2) (converted); for clearance: read-out: Plasma clearance Cl (converted)
Protocol: The in vivo pharmacokinetics and oral bioavailability of the compound of the examples were/are investigated in male Swiss mice (fed) following single intravenous (i.v.) bolus and oral (p.o.) administration. For the i.v. and p.o. solution formulations, the compound was/is dissolved in a 20% HP-β-CD solution. The pH of the formulations was/is around pH 4. All i.v. formulations were isotonic.

S. aureus = experiment: Antibacterial susceptibility testing, IC90 determination with 10% human serum (STA + 10% HS); format: cell-based, Staphylococcus aureus; conditions: human serum at final concentration of 10%; for IC90: Staphylococcus aureus, read-out: STA + 10% HS (361.169) IC90
How it was run: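 Broth microdilution in Mueller-Hinton broth with 10% human serum, 5×10^5 CFU/ml S. aureus, two-fold compound dilutions (typically 63 to 0.49 μM), 1.25% DMSO, 16-20 h at 35° C. Growth read fluorometrically with resazurin (ex 540/em 590 nm); IC90 in μg/ml is the 90% growth-inhibitory concentration.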

[5] = Cytotoxicity MTT assay (HELAM); format: cell-based, Human; conditions: human, HelaM cells, read-out: HELAM (222.125) CC50
How it was run: (§1)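 HelaM cells exposed 72 h at 37° C to serial dilutions, typically 25 to 0.8 μM, in 0.5% DMSO. MTT formazan dissolved in 2-propanol, absorbance at 540 nm minus 690 nm; CC50 is concentration halving viability.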

Human HelaM cells = experiment: Cytotoxicity MTT assay (HELAM); format: cell-based; conditions: 72 hours
How it was run: as §1

[6] = Thermodynamic solubility (pH solubility profiling); format: physicochemical; conditions: thermodynamic from solid
Protocol: The pH solubility profiling was carried out at ambient temperature for a period of 4 days. A saturation solubility study was carried out in order to determine maximum solubility in a particular buffer solution. The compound was added to respective buffer solution until saturation point is reached. This was followed by shaking the flask for 4 days at ambient temperature. After 4 days, the solutions were filtered and injected on UPLC and the concentration was determined using a generic HPLC method.

[7] = 2.5 mg/kg, 20% HP-β-cyclodextrin
[8] = male, Swiss, plasma, iv, 2.5 mg/kg, 20% HP-β-cyclodextrin
[9] = male, Swiss, plasma, po, 10 mg/kg, 20% HP-β-cyclodextrin
[10] = aqueous buffer, Buffer pH 4, ambient temperature
[11] = aqueous buffer, Buffer pH 7.4, ambient temperature
[12] = aqueous with cosolvent or surfactant or cyclodextrin, 10% HP-β-CD buffer pH 4, ambient temperature
[13] = aqueous with cosolvent or surfactant or cyclodextrin, 10% HP-β-CD buffer pH 7.4, ambient temperature
[14] = aqueous with cosolvent or surfactant or cyclodextrin, 20% HP-β-CD buffer pH 4, ambient temperature
[15] = aqueous with cosolvent or surfactant or cyclodextrin, 20% HP-β-CD buffer pH 7.4, ambient temperature
[16] = pH 2, aqueous with cosolvent or surfactant or cyclodextrin, 20% HP-β-CD 0.01N HCl, ambient temperature
[17] = pH 2, simulated gastric fluid, 0.01N HCl, ambient temperature
[18] = male, Swiss, plasma, po, 5 mg/kg, 20% HP-β-cyclodextrin

Compound: O=C1CNCc2cc(/C=C/C(=O)N3CC4C=C(c5ccccc5)CC4C3)cnc2N1 (stereo not shown) [Cpd. No. 38]
% Survival ([1]; 2.5 mpk): 75%
% Survival ([1]; 5 mpk): 100%
IC50 [2]: 1.05 µM
IC90 [3]: < 0.19 µg/mL
Vdz [4, 7]: 3.1 L/kg
AUC(0-inf) [4, 8]: 2000 ng·h/mL
half-life [4, 8]: 1.7 h
clearance [4, 8]: 21.7 mL/min/kg
AUC(0-inf) [4, 9]: 2860 ng·h/mL
Cmax [4, 9]: 665 ng/mL
Tmax [4, 9]: 1.7 h
half-life [4, 9]: 2.2 h
bioavailability ([4]; male, Swiss, plasma, po, p.o. 10 mg/kg vs i.v. 2.5 mg/kg): 36%
IC90 (S. aureus): 0.24 µg/mL
CC50 at 72 h [5]: > 10.1 µg/mL

Compound: O=C(Nc1ccc(/C=C/C(=O)N2CC3C=C(c4ccncc4)CC3C2)cn1)c1cccnc1 (stereo not shown) [compound 9]
melting point: 196 °C
IC90 [3]: 0.34 µg/mL (≈ 0.777 µM)
IC90 (S. aureus): 0.39 µg/mL
CC50 at 72 h [5]: > 11 µg/mL
solubility thermodynamic at 4 days [6, 10]: 120 µg/mL (≈ 274 µM)
solubility thermodynamic at 4 days [6, 11]: < 10 µg/mL
solubility thermodynamic at 4 days [6, 12]: 830 µg/mL (≈ 1900 µM)
solubility thermodynamic at 4 days [6, 13]: > 1120 µg/mL
solubility thermodynamic at 4 days [6, 14]: > 5230 µg/mL
solubility thermodynamic at 4 days [6, 15]: > 4940 µg/mL
solubility thermodynamic at 4 days [6, 16]: > 4930 µg/mL
solubility thermodynamic at 4 days [6, 17]: > 1250 µg/mL

Compound: O=C1Nc2ncc(/C=C/C(=O)N3CC4C=C(c5ccccc5)CC4C3)cc2CN2CCNCC12 (stereo not shown) [compound 79]
IC50 [2]: 1.32 µM
melting point: 191 to 216 °C
IC90 [3]: 0.36 µg/mL (≈ 0.79 µM)
IC90 (S. aureus): < 0.22 µg/mL
CC50 at 72 h [5]: > 11.4 µg/mL
solubility thermodynamic at 4 days [6, 10]: 150 µg/mL (≈ 329 µM)
solubility thermodynamic at 4 days [6, 11]: 10 µg/mL (≈ 22 µM)
solubility thermodynamic at 4 days [6, 12]: > 5330 µg/mL
solubility thermodynamic at 4 days [6, 13]: > 5110 µg/mL
solubility thermodynamic at 4 days [6, 14]: > 4450 µg/mL
solubility thermodynamic at 4 days [6, 15]: > 4880 µg/mL
solubility thermodynamic at 4 days [6, 16]: > 4490 µg/mL
solubility thermodynamic at 4 days [6, 17]: > 1160 µg/mL

Compound: CN1CC(=O)Nc2ncc(/C=C/C(=O)N3C[C@@H]4CN(c5ccccc5)C[C@@H]4C3)cc2C1 [compound 60]
IC50 [2]: 2.18 µM
melting point: 178 °C
STA (361.159) IC90 [3]: 5.50 µg/mL
STA + 10% HS (361.169) IC90 (S. aureus): 3.85 µg/mL
HELAM (222.125) CC50 (Human HelaM cells): >10.49 µg/mL

Compound: O=C1CNCc2cc(/C=C/C(=O)N3CC4C=C(c5ccccc5)CC4C3)cnc2N1 (stereo not shown) [compound 47]
IC50 [2]: 0.874 µM
STA (361.159) IC90 [3]: 0.24 µg/mL
STA + 10% HS (361.169) IC90 (S. aureus): 0.26 µg/mL
HELAM (222.125) CC50 (Human HelaM cells): >10.06 µg/mL

Compound: O=C1Nc2ncc(/C=C/C(=O)N3CC4C=C(c5nccs5)CC4C3)cc2CN2CCOCC12 (stereo not shown) [Cpd. No. 74]
IC50 [2]: 0.992 µM
melting point: > 260 °C
IC90 [3]: < 0.23 µg/mL
IC90 (S. aureus): < 0.23 µg/mL
CC50 at 72 h [5]: > 11.2 µg/mL
solubility thermodynamic at 4 days [6, 10]: 40 µg/mL (≈ 86.3 µM)
solubility thermodynamic at 4 days [6, 11]: 30 µg/mL (≈ 64.7 µM)
solubility thermodynamic at 4 days [6, 12]: > 1280 µg/mL
solubility thermodynamic at 4 days [6, 13]: > 1210 µg/mL
solubility thermodynamic at 4 days [6, 14]: > 2360 µg/mL
solubility thermodynamic at 4 days [6, 15]: > 1330 µg/mL
solubility thermodynamic at 4 days [6, 16]: > 2360 µg/mL
solubility thermodynamic at 4 days [6, 17]: 670 µg/mL (≈ 1450 µM)

Compound: COc1cncc(C(=O)Nc2ccc(/C=C/C(=O)N3CC4C=C(c5ccsc5)CC4C3)cn2)c1 (stereo not shown) [compound 33]
IC50 [2]: 1.29 µM
melting point: 205 °C
IC90 [3]: < 0.23 µg/mL
IC90 (S. aureus): < 0.23 µg/mL
CC50 at 72 h [5]: > 11.9 µg/mL

Compound: CN1CC(=O)Nc2ncc(/C=C/C(=O)N3C[C@@H]4CN(c5ccccc5)C[C@@H]4C3)cc2C1 [compound 58]
IC50 [2]: 1.7 µM
melting point: 178.9 to 179.8 °C
IC90 [3]: 3.39 µg/mL (≈ 8.12 µM)
IC90 (S. aureus): 3.13 µg/mL
CC50 at 72 h [5]: > 10.5 µg/mL

The next lines start with results.

IC50 [2]: 1.03 µM
STA (361.159) IC90 [3]: 0.15 µg/mL
STA + 10% HS (361.169) IC90 (S. aureus): 0.22 µg/mL
Compound: O=C1Nc2ncc(/C=C/C(=O)N3CC4C=C(c5ccccc5)CC4C3)cc2CN2CCOCC12 (stereo not shown) [compound 69]
HELAM (222.125) CC50 (Human HelaM cells): 8.31 µg/mL

IC50 [2]: ~1.16 µM
melting point: > 260 °C
IC90 [3]: < 0.19 µg/mL
Vdz [4, 7]: 1.5 L/kg
AUC(0-inf) [4, 8]: 7890 ng·h/mL
C0 [4, 8]: 3930 ng/mL
half-life [4, 8]: 3.33 h
clearance [4, 8]: 5.33 mL/min/kg
AUC(0-inf) [4, 18]: 15600 ng·h/mL
Cmax [4, 18]: 2330 ng/mL
Tmax [4, 18]: 1 h
half-life [4, 18]: 3.5 h
bioavailability ([4]; male, Swiss, plasma, po, p.o. 5 mg/kg vs i.v. 2.5 mg/kg): 98%
IC90 (S. aureus): 0.25 µg/mL
Compound: O=C1COc2cc(/C=C/C(=O)N3CC4C=C(c5ccccc5)CC4C3)cnc2N1 (stereo not shown) [compound 37]
CC50 at 72 h [5]: > 9.73 µg/mL

IC50 [2]: 0.993 µM
melting point: > 270 °C
IC90 [3]: 0.45 µg/mL (≈ 0.931 µM)
IC90 (S. aureus): 0.43 µg/mL
Compound: CN1CCN2C(=O)c3cc(/C=C/C(=O)N4CC5C=C(c6ccccc6)CC5C4)cnc3NC(=O)C2C1 (stereo not shown) [compound 82]
CC50 at 72 h [5]: > 12.1 µg/mL

IC50 [2]: 1.32 µM
melting point: 173.34 °C
IC90 [3]: 1.25 µg/mL (≈ 2.75 µM)
IC90 (S. aureus): 1.63 µg/mL
Compound: Cc1cncc(C(=O)Nc2ccc(/C=C/C(=O)N3CC4C=C(c5ccnn5C)CC4C3)cn2)c1 (stereo not shown) [compound 16]
CC50 at 72 h [5]: > 11.4 µg/mL

IC50 [2]: 1.02 µM
melting point: 154 °C
IC90 [3]: 0.38 µg/mL (≈ 0.944 µM)
IC90 (S. aureus): 0.35 µg/mL
Compound: O=C1COCc2cc(/C=C/C(=O)N3CC4C=C(c5ccncc5)CC4C3)cnc2N1 (stereo not shown) [compound 54]
CC50 at 72 h [5]: > 10.1 µg/mL
